Reference: article PMC5514948, “Stereochemical preference toward oncotarget: Design, synthesis and in vitro anticancer evaluation of diastereomeric β-lactams” (Oncotarget, 2017)
“And” between values parts separate entries of the source, which are not always exact repeats. Equal entries are not always repeated.

Assays:
[1] = test system: B16F10 (murine melanoma) cells; assay: Cytotoxic activity, WST-1 assay, B16F10; assay type: cell-based
Experimental: (§1) In vitro anticancer assays were performed in triplicate for the determination of mean values. The human cervical carcinoma SiHa, murine melanoma B16F10, chronic myelogenous leukemia (CML) K562, and Chang cell lines were cultured in minimum essential medium of Eagle at 37 °C in a […] atmosphere with 10% fetal bovine serum, 2 mM L-glutamine and 1% penicillin/streptomycin. Cells were trypsinized and seeded at a density of 5 × 10^4 cells/mL in a 96-well plate and incubated at 37 °C, […] atmosphere for 24 h. Thereafter the cells were treated with azetidin-2-one derivatives (dissolved in DMSO) at various concentrations between 312 nM–10 μM, and re-incubated for further 72 h. Wells containing the equal volume of the vehicle DMSO (1% v/v) were used as background (negative control). The culture medium was then removed and the cells washed with 100 μL phosphate buffered saline (PBS); then 10 μL WST-1 (Roche, USA) was added. Cells were incubated for 2 h in absence of light at 37°C, and absorbance was read subsequently. […] Afterwards, these values were used to assess half maximal inhibitory concentration (IC50) using Graph-Pad Prism software.

[2] = test system: K562 (human immortalized myelogenous leukemia) cells; assay: Cytotoxic activity, WST-1 assay, K562; assay type: cell-based
Experimental: as §1

[3] = test system: Chang (normal liver) cells; assay: cells; assay type: cell-based; conditions: 72 h, WST-1, triplicate
Experimental: as §1

[4] = test system: SiHa (human cervical carcinoma) cells; assay: Cytotoxic activity, WST-1 assay, SiHa; assay type: cell-based
Experimental: as §1

[5] = test system: caspase-3 activation in B16F10 cells; assay: Apoptotic activity, caspase-3 assay; assay type: cell-based, murine; conditions: 24 h, podophyllotoxin as positive control
Experimental: The mechanism of cell death was identified as apoptosis. It was validated with the compound 6C. Enzyme activity associated with the induction of apoptosis was determined by caspase-3 assay (Invitrogen, USA) as described in the protocol. A concentration of approximately 3 × 10^6 cells/mL (B16F10) was taken and incubated for 24 h at 37 °C in 5% CO2 environment. Podophyllotoxin (apoptosis inducing agent) was used as positive control. After incubation for 24 h the cells were re-suspended and 50 μL of cell lysis reagent was added, then cells were incubated for 10 min in ice bath and centrifuged. The supernatant (cytosol extract) was transferred into a new effendrof. Cytosol extract was diluted with cell lysis reagent to a concentration of 2 μg/μL, in a total volume of 50 μL. Then 50 μL of 2X reaction buffer and 5 μL of tetrapeptide-p-nitroaniline (DEVD-pNA) were added. It was incubated at 37 °C for 2 h (in dark), and finally the optical density at 405 nm was measured with an ELISA Reader. Caspase-3 activity was calculated that confirmed apoptosis as the mechanism of cell death.

SiHa cells = assay: Hematoxylin/Eosin staining of SiHa cells; assay type: cell-based, human; conditions: 24 h, 6C 1 μM, taxol
Experimental: (§2) The cytotoxic effect of the compound 6C in SiHa and Chang cells has been studied (Figure 2).
(§3) Cells (10 × 10^4) were grown on coated poly-lysine coverslips which were placed in 6-well microplates overnight and then incubated for 24 h in the presence of compound 6C or taxol, subsequently stained with hematoxylin and eosin. Coverslips were then observed by Light microscopy of bright field (40X).

Chang cells = assay: Hematoxylin/Eosin staining of Chang cells; assay type: cell-based; conditions: 24 h, 6C 1 μM, taxol
Experimental: as §2, §3

Structure (SMILES): COc1ccc([C@@H]2[C@H](N)C(=O)N2c2ccc(OC)cc2)cc1 (racemic) [1C, (±)-Cis-3-amino-1,4-bis(4-methoxyphenyl) azetidin-2-one]
- IC50 ([1]; 72 h, WST-1, triplicate): 3.33 ± 0.3 µM
- IC50 ([2]; 72 h, WST-1, triplicate): > 10 µM
- IC50 [3]: 6.21 ± 0.5 µM
- IC50 ([4]; 72 h, WST-1, triplicate): 4.21 ± 0.4 µM

Structure (SMILES): COc1ccc([C@H]2[C@H](N)C(=O)N2c2ccc(OC)cc2)cc1 (racemic) [1T, (±)-Trans-3-amino-1,4-bis(4-methoxyphenyl) azetidin-2-one]
- IC50 ([1]; 72 h, WST-1, triplicate): 5.16 ± 0.5 µM
- IC50 ([2]; 72 h, WST-1, triplicate): > 10 µM
- IC50 [3]: 7.91 ± 0.4 µM
- IC50 ([4]; 72 h, WST-1, triplicate): 7.17 ± 0.3 µM

Structure (SMILES): COc1ccc([C@@H]2[C@H](N)C(=O)N2c2ccccc2)cc1 (racemic) [2C, (±)-Cis-3-amino-4-(4-methoxyphenyl)-1-phenyl-azetidin-2-one]
- IC50 ([2]; 72 h, WST-1, triplicate): > 10 µM
- IC50 [3]: 8.03 ± 0.5 µM
- IC50 ([4]; 72 h, WST-1, triplicate): 6.2 ± 0.6 µM

Structure (SMILES): COc1ccc([C@H]2[C@H](N)C(=O)N2c2ccccc2)cc1 (racemic) [2T, (±)-Trans-3-amino-4-(4-methoxyphenyl)-1-phenyl-azetidin-2-one]
- IC50 ([1]; 72 h, WST-1, triplicate): 7.63 ± 0.4 µM
- IC50 ([2]; 72 h, WST-1, triplicate): > 10 µM
- IC50 [3]: > 10 µM
- IC50 ([4]; 72 h, WST-1, triplicate): 7.14 ± 0.5 µM

Structure (SMILES): COc1ccc(N2C(=O)[C@@H](N)[C@H]2c2ccc(OC)c(OC)c2)cc1 (racemic) [3C, (±)-Cis-3-amino-4-(3,4-dimethoxyphenyl)-1-(4-methoxyphenyl) azetidin-2-one]
- IC50 ([1]; 72 h, WST-1, triplicate): < 5 µM and 3.91 µM
- IC50 ([2]; 72 h, WST-1, triplicate): 6.14 ± 0.4 µM
- IC50 [3]: 9.32 ± 0.6 µM
- IC50 ([4]; 72 h, WST-1, triplicate): 5.1 ± 0.4 µM

Structure (SMILES): COc1ccc(N2C(=O)[C@@H](N)[C@@H]2c2ccc(OC)c(OC)c2)cc1 (racemic) [3T, (±)-Trans-3-amino-4-(3,4-dimethoxyphenyl)-1-(4-methoxyphenyl) azetidin-2-one]
- IC50 ([1]; 72 h, WST-1, triplicate): > 10 µM
- IC50 ([2]; 72 h, WST-1, triplicate): > 10 µM
- IC50 [3]: > 10 µM
- IC50 ([4]; 72 h, WST-1, triplicate): > 10 µM

Structure (SMILES): COc1ccc(N2C(=O)[C@@H](N)[C@H]2c2ccccc2[N+](=O)[O-])cc1 (racemic) [4C, (±)-Cis-3-amino-1-(4-methoxyphenyl)-4-(2-nitrophenyl) azetidin-2-one]
- IC50 ([1]; 72 h, WST-1, triplicate): 5.91 ± 0.6 µM
- IC50 ([2]; 72 h, WST-1, triplicate): > 10 µM
- IC50 [3]: 7.37 ± 0.4 µM
- IC50 ([4]; 72 h, WST-1, triplicate): 7.28 ± 0.5 µM

Structure (SMILES): COc1ccc(N2C(=O)[C@@H](N)[C@@H]2c2ccccc2[N+](=O)[O-])cc1 (racemic) [4T, (±)-Trans-3-amino-1-(4-methoxyphenyl)-4-(2-nitrophenyl) azetidin-2-one]
- IC50 ([1]; 72 h, WST-1, triplicate): > 10 µM
- IC50 ([2]; 72 h, WST-1, triplicate): > 10 µM
- IC50 [3]: > 10 µM
- IC50 ([4]; 72 h, WST-1, triplicate): 8.12 ± 0.4 µM

Structure (SMILES): COc1ccc(N2C(=O)[C@@H](N)[C@H]2c2ccc(C)cc2)cc1 (racemic) [5C, (±)-Cis-3-amino-1-(4-methoxyphenyl)-4-(p-tolyl) azetidin-2-one]
- IC50 ([2]; 72 h, WST-1, triplicate): > 10 µM
- IC50 [3]: 7.01 ± 0.1 µM
- IC50 ([4]; 72 h, WST-1, triplicate): 4.03 ± 0.5 µM

Structure (SMILES): COc1ccc(N2C(=O)[C@@H](N)[C@@H]2c2ccc(C)cc2)cc1 (racemic) [5T, (±)-Trans-3-amino-1-(4-methoxyphenyl)-4-(p-tolyl)azetidin-2-one]
- IC50 ([1]; 72 h, WST-1, triplicate): 7.14 ± 0.6 µM
- IC50 ([2]; 72 h, WST-1, triplicate): > 10 µM
- IC50 [3]: > 10 µM
- IC50 ([4]; 72 h, WST-1, triplicate): 7.79 ± 0.5 µM

Structure (SMILES): Cc1ccc([C@@H]2[C@H](N)C(=O)N2c2ccccc2)cc1 (racemic) [6C, (±)-Cis-3-amino-1-phenyl-4-(p-tolyl) azetidin-2-one]
- Apoptosis through caspase-3 activation [5]: demonstrated apoptosis in B16F10 cancer cells through caspase-3 activation
- IC50 ([1]; 72 h, WST-1, triplicate): 0.7 ± 0.1 µM
- times higher potency than colchicine ([1]; B16F10 cell lines, compared to colchicine): six
- IC50 ([2]; 72 h, WST-1, triplicate): > 10 µM
- Morphological effect, Hematoxylin/Eosin staining (SiHa cells): loss of cytoplasm and decrease in the size of nuclei
- IC50 [3]: 6.89 ± 0.3 µM
- IC50 ([4]; 72 h, WST-1, triplicate): 2.34 ± 0.2 µM
- Morphological effect, Hematoxylin/Eosin staining (Chang cells): appearance of multiple intracytoplasmic vacuoles

Structure (SMILES): Cc1ccc([C@H]2[C@H](N)C(=O)N2c2ccccc2)cc1 (racemic) [6T, (±)-Trans-3-amino-1-phenyl-4-(p-tolyl)azetidin-2-one]
- IC50 ([1]; 72 h, WST-1, triplicate): 5.79 ± 0.4 µM
- IC50 ([2]; 72 h, WST-1, triplicate): > 10 µM
- IC50 [3]: > 10 µM
- IC50 ([4]; 72 h, WST-1, triplicate): 4.79 ± 0.6 µM

Structure (SMILES): COc1ccc(N2C(=O)[C@@H](N)[C@H]2c2ccccn2)cc1 (racemic) [7C, (±)-Cis-3-amino-1-(4-methoxyphenyl)-4-(2-pyridyl)azetidin-2-one]
- IC50 ([1]; 72 h, WST-1, triplicate): > 10 µM
- IC50 ([2]; 72 h, WST-1, triplicate): 6.86 ± 0.4 µM
- IC50 [3]: 5.49 ± 0.4 µM
- IC50 ([4]; 72 h, WST-1, triplicate): 8.43 ± 0.3 µM

Structure (SMILES): COc1ccc(N2C(=O)[C@@H](N)[C@@H]2c2ccccn2)cc1 (racemic) [7T, (±)-Trans-3-amino-1-(4-methoxyphenyl)-4-(2-pyridyl)azetidin-2-one]
- IC50 ([1]; 72 h, WST-1, triplicate): > 10 µM
- IC50 ([2]; 72 h, WST-1, triplicate): > 10 µM
- IC50 [3]: > 10 µM
- IC50 ([4]; 72 h, WST-1, triplicate): > 10 µM

Structure (SMILES): CC(=O)O[C@H]1C(=O)[C@@]2(C)[C@H]([C@H](OC(=O)c3ccccc3)[C@]3(O)C[C@H](OC(=O)[C@H](O)[C@@H](NC(=O)c4ccccc4)c4ccccc4)C(C)=C1C3(C)C)[C@]1(OC(C)=O)CO[C@@H]1C[C@@H]2O [Paclitaxel, reference compound]
- IC50 ([1]; Mus musculus, B16-F10, 72 h, WST-1, triplicate): 9.57 ± 0.2 µM
- IC50 ([2]; Homo sapiens, K562, value marked * (ng/mL)): 0.0048 ± 0.0004 mg/L
- Morphological effect, Hematoxylin/Eosin staining (SiHa cells): induced severe cell damage
- IC50 [3]: 0.068 ± 0.02 µM
- IC50 ([4]; Homo sapiens, SiHa, value marked * (ng/mL)): 0.364 ± 0.31 mg/L
- Morphological effect, Hematoxylin/Eosin staining (Chang cells): early apoptosis

Structure (SMILES): CC[C@]1(O)C[C@@H]2CN(CCc3c([nH]c4ccccc34)[C@@](C(=O)OC)(c3cc4c(cc3OC)N(C)[C@H]3[C@@](O)(C(=O)OC)[C@H](OC(C)=O)[C@]5(CC)C=CCN6CC[C@]43[C@@H]65)C2)C1 [Vinblastine, reference compound]
- IC50 ([1]; Mus musculus, B16-F10, value marked * (ng/mL)): 0.055 ± 0.028 mg/L
- IC50 ([2]; Homo sapiens, K562, 72 h, WST-1, triplicate): 0.006 µM
- IC50 ([4]; Homo sapiens, SiHa, 72 h, WST-1, triplicate): 10.9 ± 0.8 µM
